The target of this experiment is T1, IRAK-M (Homo sapiens, UniProt Q9Y616).
T1 sequence (Q9Y616 1-596): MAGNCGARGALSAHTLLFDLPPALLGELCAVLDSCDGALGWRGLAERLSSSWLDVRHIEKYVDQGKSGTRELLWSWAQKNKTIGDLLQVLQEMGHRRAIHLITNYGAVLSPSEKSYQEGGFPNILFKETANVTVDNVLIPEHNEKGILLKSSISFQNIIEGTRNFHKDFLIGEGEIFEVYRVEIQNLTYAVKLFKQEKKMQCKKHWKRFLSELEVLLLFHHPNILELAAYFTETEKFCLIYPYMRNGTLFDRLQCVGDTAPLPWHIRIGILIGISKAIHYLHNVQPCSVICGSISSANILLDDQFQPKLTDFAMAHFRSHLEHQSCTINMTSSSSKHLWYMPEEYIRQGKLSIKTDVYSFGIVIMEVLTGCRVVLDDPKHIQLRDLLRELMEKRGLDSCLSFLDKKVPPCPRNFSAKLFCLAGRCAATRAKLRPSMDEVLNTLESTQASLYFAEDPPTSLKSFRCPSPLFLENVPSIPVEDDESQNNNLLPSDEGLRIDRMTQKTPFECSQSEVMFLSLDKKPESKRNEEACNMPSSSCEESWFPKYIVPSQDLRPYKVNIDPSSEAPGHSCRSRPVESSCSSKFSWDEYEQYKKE
Put plainly: IRAK-M binding inhibitory activity (KINOMEscan active site-dependent competitive assay). Further details: purchased Eurofins Discover X. Conditions: for IC50: second symbol of cell, read-out: IRAK-M binding inhibition IC50 value; for remaining binding at 1 µM: concentration of the test compound 1 μM, first symbol of cell, read-out: IRAK-M binding inhibition activity % Ctrl. How it is done:
IRAK-M binding inhibitory activity was evaluated using active site-dependent competitive assay KINOMEscan® provided by Eurofins Discover X (Goldstein, D. M. et al. High-throughput kinase profiling as a platform for drug discovery. Nat. Rev. Drug Discovery. 7, 391-397 (2008)). IRAK-M binding inhibitory activity of the test compound was evaluated. […] The “% Ctrl” is calculated by the following formula.
(test compound signal−positive control compound signal)/(negative control compound signal−positive control compound signal)×100
Negative control compound=DMSO (100 Ctrl)
Positive control compound=control compound (0%×Ctrl)

Counter-ions that a name gives are not always drawn.

A word on the IC50: it is the concentration that inhibits the measured activity by half. For `C=CCOc1cc(CN2CCC(Oc3ccnc4ccsc34)CC2)n(C)n1` [Ref. example 69, 7-((1-((3-(allyloxy)-1-methyl-1H-pyrazol-5-yl)methyl)piperidin-4-yl)oxy)thieno[3,2-b]pyridine], the IC50 was 100 to 300 nM.

As for `COc1cccc(S(=O)(=O)N2CCC(Oc3ncnc4ccsc34)CC2)c1` [Ref. example 54, 4-((1-((3-methoxyphenyl)sulfonyl)piperidin-4-yl)oxy)thieno[3,2-d]pyrimidine], the remaining binding at 1 µM fell in the range of 25 to 50%.

In the case of `Cc1ncc(CN2CCC(Oc3ccnc4ccsc34)CC2)s1` [Ref. example 80, 7-((1-((2-methylthiazol-5-yl)methyl)piperidin-4-yl)oxy)thieno[3,2-b]pyridine], the remaining binding at 1 µM lay within 25 to 50%.

As for `O=C(Cn1cccn1)N1CCC(Oc2ccnc3ccsc23)CC1` [Ref. example 81, 2-(1H-pyrazol-1-yl)-1-(4-(thieno[3,2-b]pyridin-7-yloxy)piperidin-1-yl)ethan-1-one], the remaining binding at 1 µM lay within 50 to 75%.

Regarding `C#CCN1CCC(Oc2ccnc3ccsc23)CC1` [Ref. example 67, 7-((1-(prop-2-yn-1-yl)piperidin-4-yl)oxy)thieno[3,2-b]pyridine], the remaining binding at 1 µM was in the range of 25 to 50%.

Turning to `O=C1CCC(N2C(=O)c3cccc(OCCOCCOc4cc(CN5CCC(Oc6ccnc7ccsc67)CC5)on4)c3C2=O)C(=O)N1` (stereo not drawn) [Example 66, 2-(2,6-dioxopiperidin-3-yl)-4-(2-(2-((5-((4-(thieno[3,2-b]pyridin-7-yloxy)piperidin-1-yl)methyl)isoxazol-3-yl)oxy)ethoxy)ethoxy)isoindoline-1,3-dione], the IC50 fell in the range of 100 to 300 nM.

As for `Cc1ccc(NS(=O)(=O)c2ccc(CNC(=O)COCCOc3cc(CN4CCC(Oc5ccnc6ccsc56)CC4)on3)cc2)c2[nH]cc(C#N)c12` [Example 70, N-(4-(N-(3-cyano-4-methyl-1H-indol-7-yl)sulfamoyl)benzyl)-2-(2-((5-((4-(thieno[3,2-b]pyridin-7-yloxy)piperidin-1-yl)methyl)isoxazol-3-yl)oxy)ethoxy)acetamide], the remaining binding at 1 µM is below 25%.

`Cc1nn(C)c(C)c1CN1CCC(Oc2ccnc3ccsc23)CC1` [Ref. example 75, 7-((1-((1,3,5-trimethyl-1H-pyrazol-4-yl)methyl)piperidin-4-yl)oxy)thieno[3,2-b]pyridine]: the remaining binding at 1 µM is at least 75%.

With `COC(=O)c1cc2ncnc(NCC3CC3)c2s1` [Ref. example 30, methyl 4-((cyclopropylmethyl)amino)thieno[3,2-d]pyrimidine-6-carboxylate], the remaining binding at 1 µM is at least 75%.

Turning to `CC(C)(C)OC(=O)N1CCC(CS(=O)(=O)N2CCC(Oc3ncnc4ccsc34)CC2)CC1` [Ref. example 42, tert-butyl 4-(((4-(thieno[3,2-d]pyrimidin-4-yloxy)piperidin-1-yl)sulfonyl)methyl)piperidine-1-carboxylate], the remaining binding at 1 µM was in the range of 50 to 75%.

As for `Cc1ccc(NS(=O)(=O)c2ccc(CNC(=O)COCCOCCOCCOc3cc(CN4CCC(Oc5ccnc6ccsc56)CC4)on3)cc2)c2[nH]cc(C#N)c12` [Example 69, N-(4-(N-(3-cyano-4-methyl-1H-indol-7-yl)sulfamoyl)benzyl)-2-(2-(2-(2-((5-((4-(thieno[3,2-b]pyridin-7-yloxy)piperidin-1-yl)methyl)isoxazol-3-yl)oxy)ethoxy)ethoxy)ethoxy)acetamide], the remaining binding at 1 µM is 25 to 50%.

For `O=S(=O)(c1cccc(Cl)c1)N1CCC(Oc2ncnc3ccsc23)CC1` [Ref. example 57, 4-((1-((3-chlorophenyl)sulfonyl)piperidin-4-yl)oxy)thieno[3,2-d]pyrimidine], the remaining binding at 1 µM lay within 25 to 50%.

`Cc1ncsc1-c1ccc(CNC(=O)[C@@H]2C[C@@H](O)CN2C(=O)[C@H](C(C)C)N2Cc3ccccc3C2=O)c(OCCOCCOc2cc(CN3CCC(Oc4ccnc5ccsc45)CC3)on2)c1` [Example 63, (2S,4R)-4-hydroxy-1-((S)-3-methyl-2-(1-oxoisoindolin-2-yl)butanoyl)-N-(4-(4-methylthiazol-5-yl)-2-(2-(2-((5-((4-(thieno[3,2-b]pyridin-7-yloxy)piperidin-1-yl)methyl)isoxazol-3-yl)oxy)ethoxy)ethoxy)benzyl)pyrrolidine-2-carboxamide]: the remaining binding at 1 µM was below 25%.

On to `C=CCOc1cc(CN2CCC(Oc3ncnc4ccsc34)CC2)on1` [Ref. example 70, 3-(allyloxy)-5-((4-(thieno[3,2-d]pyrimidin-4-yloxy)piperidin-1-yl)methyl)isoxazole], for which the IC50 was in the range of 100 to 300 nM.

Consider `C=CCn1oc(CN2CCC(Oc3ccnc4ccsc34)CC2)cc1=O` [Ref. example 84, 2-allyl-5-((4-(thieno[3,2-b]pyridin-7-yloxy)piperidin-1-yl)methyl)isoxazol-3(2H)-one], for which the remaining binding at 1 µM was in the range of 25 to 50%.

Consider `c1cc(OC2CCN(Cc3cc(OC[C@@H]4CCCN4)no3)CC2)c2sccc2n1` [Ref. example 10, (S)-3-(Pyrrolidin-2-ylmethoxy)-5-((4-(thieno[3,2-b]pyridin-7-yloxy)piperidin-1-yl)methyl)isoxazole trihydrochloride], for which the remaining binding at 1 µM was below 25%.

In the case of `FC(F)(F)c1ncccc1Nc1ncnc2ccsc12` [Ref. example 24, N-(2-(trifluoromethyl)pyridin-3-yl)thieno[3,2-d]pyrimidin-4-amine], the remaining binding at 1 µM lay within 50 to 75%.

For `NC(=O)c1ccc(Nc2ncnc3ccsc23)cc1` [Ref. example 18, 4-(thieno[3,2-d]pyrimidin-4-ylamino)benzamide], the remaining binding at 1 µM was 50 to 75%.

Turning to `O=S(=O)(CCc1ccccc1)N1CCC(Oc2ncnc3ccsc23)CC1` [Ref. example 63, 4-((1-(phenethylsulfonyl)piperidin-4-yl)oxy)thieno[3,2-d]pyrimidine], the remaining binding at 1 µM was below 25%.

Consider `O=C1OCc2cc(Nc3ncnc4ccsc34)ccc21` [Ref. example 29, 5-(thieno[3,2-d]pyrimidin-4-ylamino)isobenzofuran-1(3H)-one], for which the remaining binding at 1 µM fell in the range of 25 to 50%.

For `Ic1cc2ncnc(OC3CCOCC3)c2s1` [Ref. example 34, 6-iodo-4-((tetrahydro-2H-pyran-4-yl)oxy)thieno[3,2-d]pyrimidine], the remaining binding at 1 µM is at least 75%.

As for `C#Cc1cc2ncnc(OC3CCN(C)CC3)c2s1` [Ref. example 32, 6-ethynyl-4-((1-methylpiperidin-4-yl)oxy)thieno[3,2-d]pyrimidine], the remaining binding at 1 µM was at least 75%.

For `COCCS(=O)(=O)N1CCC(Oc2ncnc3ccsc23)CC1` [Ref. example 40, 4-((1-((2-methoxyethyl)sulfonyl)piperidin-4-yl)oxy)thieno[3,2-d]pyrimidine], the remaining binding at 1 µM was in the range of 25 to 50%.

In the case of `CCOc1ccc(Nc2ncnc3ccsc23)cc1` [Ref. example 65, N-(4-ethoxyphenyl)thieno[3,2-d]pyrimidin-4-amine], the remaining binding at 1 µM is at least 75%.

Take `COc1ccccc1Nc1ncnc2cc(-c3ccccc3)sc12` [Ref. example 13, N-(2-methoxyphenyl)-6-phenylthieno[3,2-d]pyrimidin-4-amine]: the remaining binding at 1 µM was at least 75%.

Consider `Cc1noc(C)c1CN1CCC(Oc2ccnc3ccsc23)CC1` [Ref. example 78, 3,5-dimethyl-4-((4-(thieno[3,2-b]pyridin-7-yloxy)piperidin-1-yl)methyl)isoxazole], for which the remaining binding at 1 µM was 25 to 50%.

For `C=CCOc1cc(CN2CCC(Oc3ccnc4ccsc34)CC2)on1` [Ref. example 3], the 50% inhibitory concentration (IC50) lay within 100 to 300 nM.

Regarding `O=S(=O)(c1cccnc1)N1CCC(Oc2ncnc3ccsc23)CC1` [Ref. example 58, 4-((1-(pyridin-3-ylsulfonyl)piperidin-4-yl)oxy)thieno[3,2-d]pyrimidine], the remaining binding at 1 µM lay in the range of 25 to 50%.

`c1ccc(Nc2ncnc3cc(-c4ccccc4)sc23)cc1` [Ref. example 12, N,6-diphenylthieno[3,2-d]pyrimidin-4-amine]: the remaining binding at 1 µM was at least 75%.

Take `O=S(=O)(c1ccccc1F)N1CCC(Oc2ncnc3ccsc23)CC1` [Ref. example 49, 4-((1-((2-fluorophenyl)sulfonyl)piperidin-4-yl)oxy)thieno[3,2-d]pyrimidine]: the remaining binding at 1 µM was in the range of 25 to 50%.

On to `O=S1(=O)CCC(Oc2ncnc3cc(I)sc23)CC1` [Ref. example 37, 4-((6-iodothieno[3,2-d]pyrimidin-4-yl)oxy)tetrahydro-2H-thiopyran 1,1-dioxide], for which the remaining binding at 1 µM is at least 75%.

In the case of `C#CCOc1cc(CN2CCC(Oc3ccnc4ccsc34)CC2)on1` [Ref. example 71, 3-(prop-2-yn-1-yloxy)-5-((4-(thieno[3,2-b]pyridin-7-yloxy)piperidin-1-yl)methyl)isoxazole], the 50% inhibitory concentration (IC50) was 30 to 100 nM.

Consider `C=CCOc1cc(C(C)N2CCC(Oc3ccnc4ccsc34)CC2)on1` (single isomer, unassigned) [Ref. example 5, 3-(allyloxy)-5-(1-(4-(thieno[3,2-b]pyridin-7-yloxy)piperidin-1-yl)ethyl)isoxazole (enantiomer)], for which the IC50 lay in the range of 30 to 100 nM.

Source of the values: US20220402935A1, “HETEROCYCLIC COMPOUND” (FIMECS, INC., priority 2019, published 2022).
